Measured values published in patent publication US20040151761A1, “Methods and compositions utilizing astaxanthin” (priority 2003, published 2004).
Entries after “also recorded” stand apart in the source; their conditions may differ.

Tests used:
[1] = system: Cutaneous delayed-type hypersensitivity (DTH); experiment: Delayed-type hypersensitivity (skin induration) in cats; type: in vivo, cat
[2] = system: CD3, CD4, CD8, MHC II and CD21 lymphocyte subpopulations; experiment: Leukocyte subsets in dogs by flow cytometry; type: in vivo, dog
Text: Leukocyte subset. Subpopulations of CD3 (total T), CD4 (Th), CD8 (Tc), MHC II (activated lymphocytes), and CD21 (mature B cells) were quantitated by flow cytometry on week 0, 6, 12 and 16 (Chew et al., 2000).

[3] = Body weight of dogs fed astaxanthin; type: in vivo, dog
Procedure: (§1) Female Beagle dogs (9 to 10 mo old; 8.2±0.2 kg body weight; Covance Research Products Inc., Kalamazoo, Mich.) were randomly assigned (n=14/treatment) to be fed 0, 10, 20, or 40 mg astaxanthin (109 g astaxanthin/kg oleoresin concentrate from Haematococcus pluvialis, astraZanthin™, La Haye Laboratories, Redmond, Wash.) daily for 16 weeks. Astaxanthin was incorporated into a commercial basal diet (The Iams Co., Lewisburg, Ohio.) and fed two times daily (200 g food/d). The diet composition was as follows (g/kg): 85.3 moisture, 275.8 protein, 60.7 ash, 115.0 fat, 9.9 Ca, 9.3 P, 21.3 crude fiber, and 18,914 kJ/kg gross energy; the n-6:n-3 fatty acid ratio was 7.9. Dogs were housed in 2×3 m pens (2 dogs/pen) in a temperature (20 to 22° C.) and light-(14 hour light) controlled facility. Body weight was recorded on week 0, 4, 8, and 16. Blood was collected on wk 0, 6 and 12 for assessing immune function. All dogs were vaccinated (Vanguard 5™, Smithkline Beacham, West Chester, Pa.) twice on week 12 and 14 and blood again taken on week 16 to assess post-vaccination immune responses.

[4] = system: humoral and cell-mediated immune responses; details: cited from earlier work
[5] = system: mammary and bladder tumor; details: cited from earlier work
[6] = Plasma astaxanthin in dogs fed astaxanthin diets; type: in vivo, dog
Procedure: as §1

IgG and IgM = experiment: Plasma IgG and IgM in dogs (ELISA); type: in vivo, dog
Text: as §1, with “([…]” for “(n=14/treatment) to be fed 0, 10, 20, or 40 mg astaxanthin (109 g astaxanthin/kg oleoresin”
IgG and IgM. Concentrations of IgG (sheep anti-dog IgG; sensitivity=16 micrograms/L) and IgM (goat anti-dog IgM; sensitivity=31 micrograms/L) in plasma were analyzed by ELISA using a commercial kit (Bethyl Lab., Inc., Montgomery, Tex.).

Hematology in cats = experiment: Hematology in cats; set-up: species or system cat; details: in vivo
Procedure: Hematology. Hematology parameters (white blood cell, RBC and platelet counts, lymphocyte, monocyte and granulocyte differential counts, hematocrit, hemoglobin, and mean corpuscular volume, hemoglobin and hemoglobin concentration, and platelet volume) were measured using a hematology analyzer (Vet ABC-Hematology Analyzer, Heska, Fort Collins, Colo.).

[7] = system: peripheral blood mononuclear cell (PBMC); experiment: Lymphoproliferation in dogs (whole blood cultures); type: in vivo, dog
Procedure: Lyniphoproliferation. The proliferation response of peripheral blood mononuclear cell (PBMC) to PHA (2 and 10 mg/L final concentration), concanavalin A (Con A; 1 and 5 mg/L), and pokeweed mitogen (PWM; 0.25 and 1.25 mg/L) was assessed on week 0, 6, 12 and 16 using whole blood cultures (Chew et al., 2000). Whole blood was cultured in order to mimic in vivo conditions.

splenocyte = details: mice (Chew et al., 1999); cited from earlier work
[8] = Absorption of astaxanthin and distribution to blood leukocytes and HDL in dogs; type: in vivo, dog
[9] = system: cutaneous delayed-type hypersensitivity (DTH); experiment: Delayed-type hypersensitivity (skin induration) in dogs; type: in vivo, dog
Procedure: Female Beagle dogs (9 to 10 mo old; 8.2±0.2 kg body weight; Covance Research Products Inc., Kalamazoo, Mich.) were randomly assigned (n=14/treatment) to be fed 0, 10, 20, or 40 mg astaxanthin (109 g astaxanthin/kg oleoresin concentrate from Haematococcus pluvialis, astraZanthin™, La Haye Laboratories, Redmond, Wash.) daily for 16 weeks. Astaxanthin was incorporated into a commercial basal diet (The Iams Co., Lewisburg, Ohio.) and fed two times daily (200 g food/d). […] Blood was collected on wk 0, 6 and 12 for assessing immune function. All dogs were vaccinated (Vanguard 5™, Smithkline Beacham, West Chester, Pa.) twice on week 12 and 14 and blood again taken on week 16 to assess post-vaccination immune responses.
On week 12 (before vaccination) and 16 (after vaccination), all dogs were injected intradermally with 100 microliters of (1) saline (8.5 g/L; negative control), (2) an attenuated polyvalent vaccine containing canine distemper virus, adenovirus type-2, parainfluenza virus and parvovirus (undiluted; Vanguard 5™, Smithkline Beacham, West Chester, Pa.), and (3) phytohemagglutinin (PHA, 0.5 g/L) as previously described (Chew et al., 2000) to assess cutaneous delayed-type hypersensitivity (DTH). Skin induration was measured at 0, 24, 48 and 72 hours post-injection.

[10] = 20 mg, post-vaccination week 16

- time at which maximal blood concentrations were observed ([6]; all supplemented dogs): ≤ 6 wk
- plasma astaxanthin concentration ([6]; supplemented dogs, through week 16): increased in a dose-dependent manner
- blood hematology parameters (Hematology in cats): generally did not influence
- hematology values relative to normal range (Hematology in cats): within the normal range
- absorption of dietary astaxanthin ([8]; domestic dogs): able to absorb dietary astaxanthin
SMILES: CC1=C(/C=C/C(C)=C/C=C/C(C)=C/C=C/C=C(C)/C=C/C=C(C)/C=C/C2=C(C)C(=O)C(O)CC2(C)C)C(C)(C)CC(O)C1=O (stereo not drawn) [astaxanthin, 3,3′-dihydroxy-beta, beta-carotene-4,4′-dione]
- DTH response with dietary astaxanthin ([1]; after vaccination, wk 12): somewhat diminished
- skin induration response to vaccine ([1]; wk 8, 72 h post-injection, cats fed 10 mg): significant enhancement
- DTH response to con A ([1]; wk 8, cats fed 5 or 10 mg): higher DTH response to con A at 24 and 48 h
- time of maximal skin induration response to vaccine ([1]; wk 8, post-injection): 72 h
- DTH response to nonspecific (con A) antigenic challenge ([1]; wk 8, pre-vaccination): stimulated DTH response; also recorded: increased DTH response
- DTH response to specific (vaccine) antigenic challenge ([1]; wk 8, pre-vaccination): stimulated DTH response; also recorded: increased DTH response
- DTH response to con A ([1]; wk 12): significant only with 1 mg astaxanthin
- DTH response to vaccine ([1]; wk 12, cats fed 10 mg): still showed enhanced DTH response to vaccine, but at 24 h after injection
- population of B cells [2, 10]: showed the highest response; also recorded: highest B cell subpopulation
- CD4 population ([2]; any time period): did not effect changes
- CD8 population ([2]; any time period): did not effect changes
- MHC class II population ([2]; any time period): did not effect changes
- CD3 population ([2]; dogs fed 30 mg): transient decrease in the CD3 population
- population of B cells ([2]; week 6 and 12, dose-dependent): generally increased the population of B cells
- influence of diet on body weight ([3]; dogs fed 0, 10, 20 or 40 mg daily, throughout 16 wk study): did not significantly influence body weight
- body weight averaged ([3]; wk 16, average over all diets): 8.57 ± 0.11 kg
- cell-mediated immune response ([4]; rodents (Chew et al., 1999b)): enhanced
- T cell-mediated antibody production ([4]; rodents (Jyonouchi et al., 1994)): increased T cell-mediated antibody production
- humoral immune response ([4]; rodents (Jyonouchi et al., 1995)): enhanced
- mammary tumor growth ([5]; rodents (Chew et al., 1999a)): inhibited
- bladder tumor growth ([5]; rodents (Tanaka et al., 1994)): inhibited
- plasma IgG concentration (IgG and IgM; [10]): higher; also recorded: highest concentrations of IgG and IgM
- plasma IgG concentration (IgG and IgM; 20 mg, week 12): higher
- plasma IgM concentration (IgG and IgM; 20 mg, week 16): significantly higher IgM concentrations; also recorded: highest concentrations of IgG and IgM
- IgG production (IgG and IgM; higher (30 mg) dietary astaxanthin): did not produce the same stimulation
- con A-induced PBMC proliferation ([7]; 20 mg, week 12): higher con A-induced PBMC proliferation than un-supplemented dogs; also recorded: highest blastogenic response
- PHA-stimulated PBMC proliferation ([7]; all time periods): did not influence
- PWM-stimulated PBMC proliferation ([7]; all time periods): did not influence
- mitogen-induced splenocyte proliferation (splenocyte): enhance mitogen-induced splenocyte proliferation
- lipoprotein association of circulating astaxanthin ([8]; dogs): associated with high-density lipoprotein (HDL)
- uptake by blood and blood leukocytes (sub-cellular organelles) ([8]; domestic dogs fed astaxanthin): significant uptake by the blood and by all sub-cellular organelles of blood leukocytes; also recorded: significantly absorbed by blood leukocytes
- time after intradermal challenge at which skin induration response was observed ([9]; before vaccination): 48 h
- DTH response to PHA ([9]; nonspecific antigen): No similar response was observed; also recorded: but not to PHA
- time after intradermal challenge at which skin induration response was observed ([9]; post-vaccination): 24 h
- DTH response compared with other carotenoids previously investigated ([9]; versus β-carotene and lutein in dogs): heightened DTH response
- skin induration response to saline, PHA or vaccine ([9]; wk 0 and 8): did not significantly influence
- DTH response to intradermal vaccine challenge ([9]; wk 12 (before vaccination), dogs fed 10, 20 and 30 mg (10 to 40 mg)): significant DTH response to vaccine; also recorded: higher DTH response at 38 and 72 h; also recorded: increased delayed-type hypersensitivity (DTH) response
- DTH response to intradermal vaccine challenge ([9]; wk 16, after vaccination on wk 12 and 14): observed earlier (at 24 and 38 h); also recorded: similarly enhanced
